# Reference: US10358449B2, “Xanthine derivative” (priority 2015, dated 2019)
# Counter-ions that a name gives are not always drawn. Like-named read-outs stand apart in the source and are kept apart here. Marks after values point to notes of the source that are not given here.
# Legend:
# [1] = target: humanized recombinant DPP-IV (Homo sapiens (Human), UniProt P27487); assay: DPP-IV activity inhibition test in vitro (DPPIV-Glo luminescence); assay type: biochemical; settings: DPP-IV, Table 1; read-out: IC50
# Sequence of humanized recombinant DPP-IV (P27487 whole entry): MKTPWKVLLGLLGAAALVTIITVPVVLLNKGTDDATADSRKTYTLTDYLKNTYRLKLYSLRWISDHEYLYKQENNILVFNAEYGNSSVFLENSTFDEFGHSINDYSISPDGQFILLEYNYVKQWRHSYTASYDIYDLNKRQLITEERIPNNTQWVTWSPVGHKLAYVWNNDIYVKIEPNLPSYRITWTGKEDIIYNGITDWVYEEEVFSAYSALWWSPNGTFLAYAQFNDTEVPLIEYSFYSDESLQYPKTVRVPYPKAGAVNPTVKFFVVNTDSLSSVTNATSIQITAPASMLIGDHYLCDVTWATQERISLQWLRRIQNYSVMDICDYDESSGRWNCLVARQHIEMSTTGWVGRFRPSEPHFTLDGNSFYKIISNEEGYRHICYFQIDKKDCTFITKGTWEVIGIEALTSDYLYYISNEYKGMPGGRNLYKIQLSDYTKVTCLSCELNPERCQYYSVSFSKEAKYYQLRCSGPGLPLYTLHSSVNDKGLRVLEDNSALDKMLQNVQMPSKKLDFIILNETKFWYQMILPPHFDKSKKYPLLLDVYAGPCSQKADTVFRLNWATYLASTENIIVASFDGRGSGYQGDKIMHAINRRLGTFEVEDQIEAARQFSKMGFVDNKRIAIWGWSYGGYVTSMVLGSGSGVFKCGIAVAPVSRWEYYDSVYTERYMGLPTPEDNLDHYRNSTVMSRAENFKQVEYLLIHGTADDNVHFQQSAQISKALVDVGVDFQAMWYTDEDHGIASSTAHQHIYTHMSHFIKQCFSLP
# Description: (1) DPP-IV Activity Inhibition Tests In Vitro
# DPP-IV could hydrolyze Gly-Pro-Aminoluciferin at room temperature to generate Aminoluciferin, which could produce “glow type” luminescent signals in a luciferase reaction system provided by a DPPIV-Glo™ protease test kit, and the strength of the luminescent signals was in direct proportion to the enzyme activity of DPP-IV.
# 2.1 humanized recombinant DPP-IV: SIGMA product, article number D3446-10UG.
# 2.2 DPPIV-Glo™ protease detection kit: Promega product, article number G8351.
# 3.2 Diluting dipeptidyl peptidase IV (Sigma) to 0.2 ng/ml solution with 10 mM Tris-HCl (pH 8.0), adding the samples to be detected in, per well 25 μl. […] Experimental Results
# [2] = CD-1 mouse, 5 mg/kg, oral administration; cited from earlier work
# [3] = man, 5 mg/subject; cited from earlier work
# [4] = system: normal mice (C57BL/6J); assay: Oral glucose tolerance test of normal mice; assay type: in vivo, mouse; design: AUC0-120 min: unit not given beside the values
# Description: (§1) 2. Experimental method: normal mice, obese mice and diabetic mice were used for studying glucose tolerance tests Experimental process of OGTT (Oral Glucose Tolerance Test): fasting for 6 hours before the test begins, 60 min after drug administration, glucose was administrated by gavage (drug concentration 0.6 mg/ml, administration volume 5 ml/kg) (2 g/kg glucose was administrated to diabetic mice; 2 g/kg glucose was administrated to obese mice; and 5 g/kg glucose was administrated to normal mice), blood glucose values at 0 min, 15 min, 30 min, 45 min, 60 min and 120 min are respectively determined after glucose administration, […]
# [5] = system: obese mice (B6.Cg-Lepob/JNju); assay: Glucose tolerance test of obese mice; assay type: in vivo, mouse; design: AUC0-120 min: unit not given beside the values
# Description: as §1
# [6] = system: diabetic mice (B6.BKS(D)-Leprdb/JNju); assay: Glucose tolerance test of diabetic mice (Table 5); assay type: in vivo, mouse; design: AUC0-120 min: unit not given beside the values
# Description: as §1
compound,measurement,setting,value
"CC#CCn1c(N2CCC[C@@H](N)C2)nc2c1c(=O)n(Cc1cccc(F)c1C#N)c(=O)n2C [Compound I-1, 1-[(6-fluorine-benzonitrile-2-yl)methyl]-3-methyl-7-(2-butyne-1-yl)-8-[(R)-3-amino-piperidine-1-yl]-xanthine]",IC50,[1],0.21 nM
"CC#CCn1c(N2CCC[C@@H](N)C2)nc2c1c(=O)n(Cc1nc(C)c3ccccc3n1)c(=O)n2C [Linagliptin, linagliptin, reference compound]",bioavailability (F),[2],18.4%
same,bioavailability (F),[3],30%
same,Blood glucose concentration 0 min,"[4]; normal mice C57BL/6J, drug at -60 min (0.6 mg/ml, 5 ml/kg), 5 g/kg glucose at 0 min",8.64* mmol/L
same,Blood glucose concentration 15 min,"[4]; normal mice, 15 min after glucose",14.7*** mmol/L
same,Blood glucose concentration 30 min,"[4]; normal mice, 30 min after glucose",10.5*** mmol/L
same,Blood glucose concentration 45 min,"[4]; normal mice, 45 min after glucose",9.5*** mmol/L
same,Blood glucose concentration 60 min,"[4]; normal mice, 60 min after glucose",10.14*** mmol/L
same,Blood glucose concentration 120 min,"[4]; normal mice, 120 min after glucose",7.72 mmol/L
same,AUC0-120 min,"[4]; normal mice, blood glucose AUC",1198***
same,Blood glucose concentration 0 min,"[5]; obese mice B6.Cg-Lepob/JNju, drug at -60 min (0.6 mg/ml, 5 ml/kg), 2 g/kg glucose at 0 min",10.95 mmol/L
same,Blood glucose concentration 15 min,"[5]; obese mice, 15 min after glucose",31.73 mmol/L
same,Blood glucose concentration 30 min,"[5]; obese mice, 30 min after glucose",27.98 mmol/L
same,Blood glucose concentration 45 min,"[5]; obese mice, 45 min after glucose",20.50 mmol/L
same,Blood glucose concentration 60 min,"[5]; obese mice, 60 min after glucose",16.00* mmol/L
same,Blood glucose concentration 120 min,"[5]; obese mice, 120 min after glucose",11.50 mmol/L
same,AUC0-120 min,"[5]; obese mice, blood glucose AUC",2230
same,Blood glucose concentration 0 min,"[6]; diabetic mice B6.BKS(D)-Leprdb/JNju, drug at -60 min (0.6 mg/ml, 5 ml/kg), 2 g/kg glucose at 0 min",12.09 mmol/L
same,Blood glucose concentration 15 min,"[6]; diabetic mice, 15 min after glucose",29.98* mmol/L
same,Blood glucose concentration 30 min,"[6]; diabetic mice, 30 min after glucose",20.15*** mmol/L
same,Blood glucose concentration 45 min,"[6]; diabetic mice, 45 min after glucose",16.60*** mmol/L
same,Blood glucose concentration 60 min,"[6]; diabetic mice, 60 min after glucose",15.83** mmol/L
same,Blood glucose concentration 120 min,"[6]; diabetic mice, 120 min after glucose",10.05* mmol/L
same,AUC0-120 min,"[6]; diabetic mice, blood glucose AUC",1987**
"CC#CCn1c(N2CCC[C@@H](N)C2)nc2c1c(=O)n(Cc1cc(F)c(F)cc1C#N)c(=O)n2C [Compound I-2, 1-[(4,5-difluoro-benzonitrile-2-yl)methyl]-3-methyl-7-(2-butyne-1-yl)-8-[(R)-3-amino-piperidine-1-yl]-xanthine]",IC50,[1],2.1 nM
"CC#CCn1c(N2CCC[C@@H](N)C2)nc2c1c(=O)n(Cc1ncccc1C(=O)OC)c(=O)n2C [Compound I-4, 1-[(3-methyl formate-pyridine-2-yl)methyl]-3-methyl-7-(2-butyne-1-yl)-8-[(R)-3-amino-piperidine-1-yl]-xanthine]",IC50,[1],4.8 nM
